In patent publication US12016355B2, “Stevia composition” (PURECIRCLE SDN BHD, priority 2011, dated 2024):
Read-outs that look alike come from different tables or passages of the source.

How the values were obtained:
[1] = as usually found, literature; cited from earlier work
[2] = Sweetness factor (SF) determination by trained panel in water; conditions: in water, 5% SE
Method: The sweetness factors for different sweetener from all major groups were measured by tasting several concentrations of each sweetener in water by trained panel. From the sensory test at a, the concentration (%) that corresponds to the 5% sucrose equivalent (SE) sweetness were estimated and listed in Table 2. The sweetness equivalent (SE) of high intensity sweeteners (HIS) varies according to the target sugar equivalent sweetness levels, that are tested as shown in Table 3.

[3] = Sugar equivalent sweetness of sweetener/Reb B combinations in plain water, trained panel; conditions: plain water
Method: In one embodiment, Reb B was combined (at 50, 150 and 300 ppm) with several sweeteners listed in Table 2 to make solutions in plain water. Some of the sweeteners were tested at two different concentrations to obtain around 2% sugar equivalent sweetness without any Reb B. A trained panel conducted sensory tests to determine the effect of the addition of different amounts of Reb B to each sweetener on overall sweetness quality and intensity as shown in Table 4.

[4] = room temperature; reported values; cited from earlier work
[5] = assay type: physicochemical
Method: Hereinafter, unless specified otherwise the solubility of material is determined in reverse osmosis (RO) water at room temperature. Where the solubility is expressed as “%” it to be understood as number of grams of material soluble in 100 grams of solvent.
The temperature was increased at 1° C. per minute to 121° C. The mixture was maintained at 121° C. for 1 hour and then the temperature was decreased to 80° C., at 1° C. per minute, and the obtained solution was spray dried using YC-015 laboratory spray drier (Shanghai Pilotech Instrument & Equipment Co. Ltd., China) operating at 175° C. inlet and 100° C. outlet temperature. Solution was maintained at 80° C. to prevent premature crystallization.
Solubility were evaluated for Reb A, Reb B, mechanical blends of Reb A and Reb B powders of different ratios, and mixtures of Reb A and Reb B prepared according to process described in EXAMPLE 1.

For `C=C1C[C@@]23CC[C@H]4[C@@](C)(CCC[C@@]4(C)C(=O)O[C@@H]4O[C@H](CO)[C@@H](O)[C@H](O)[C@H]4O)[C@@H]2CC[C@]1(O[C@@H]1O[C@H](CO)[C@@H](O)[C@H](O)[C@H]1O[C@@H]1O[C@@H](C)[C@H](O)[C@@H](O)[C@H]1O)C3` [Dulcoside A], the “times sweeter than sucrose” value [1] is given as 30 times.

In the case of `OC[C@@H](O)[C@@H](O)CO` [Erythritol], the “Calculated SF (sweetness factor)” value [2] is reported as 0.67, the “Usage Level, % (concentration corresponding to 5% sucrose equivalent sweetness)” value (“Usage Level, %” below) [2] is reported as 7.49% and the “Sugar equivalent sweetness (SE) of Sweetener/Reb B combination” value ([3]; 0 ppm Reb B, listed as Erythritol (3.5%)) is reported as 1-1.5%. For the same compound, the “Sugar equivalent sweetness (SE) of Sweetener/Reb B combination” value ([3]; 0 ppm Reb B, listed as Erythritol (5.0%)) was 3%, the “Sugar equivalent sweetness (SE) of Sweetener/Reb B combination” value ([3]; 50 ppm Reb B, listed as Erythritol (3.5%)) was 3% and the “Sugar equivalent sweetness (SE) of Sweetener/Reb B combination” value ([3]; 50 ppm Reb B, listed as Erythritol (5.0%)) was 4%. For the same compound, the “Sugar equivalent sweetness (SE) of Sweetener/Reb B combination” value ([3]; 150 ppm Reb B, listed as Erythritol (3.5%)) was 5.5-6%, the “Sugar equivalent sweetness (SE) of Sweetener/Reb B combination” value ([3]; 150 ppm Reb B, listed as Erythritol (5.0%)) was 8% and the “Sugar equivalent sweetness (SE) of Sweetener/Reb B combination” value ([3]; 300 ppm Reb B, listed as Erythritol (3.5%)) was 9%. For the same compound, the “Sugar equivalent sweetness (SE) of Sweetener/Reb B combination” value ([3]; 300 ppm Reb B, listed as Erythritol (5.0%)) was 9.5%.

For `OC[C@@H](O)[C@@H](O[C@H]1O[C@H](CO)[C@@H](O)[C@H](O)[C@H]1O)[C@H](O)[C@@H](O)CO` [Maltitol], the “Calculated SF (sweetness factor)” value [2] was 0.77, the “Usage Level, %” value [2] was 6.44% and the “Sugar equivalent sweetness (SE) of Sweetener/Reb B combination” value ([3]; 0 ppm Reb B) was 5%. The “Sugar equivalent sweetness (SE) of Sweetener/Reb B combination” value ([3]; 50 ppm Reb B) was 6%, the “Sugar equivalent sweetness (SE) of Sweetener/Reb B combination” value ([3]; 150 ppm Reb B) was 9% and the “Sugar equivalent sweetness (SE) of Sweetener/Reb B combination” value ([3]; 300 ppm Reb B) was 12%.

For `C[C@H](CC[C@@H](O[C@@H]1O[C@H](CO[C@@H]2O[C@H](CO)[C@@H](O)[C@H](O)[C@H]2O)[C@@H](O)[C@H](O)[C@H]1O[C@@H]1O[C@H](CO)[C@@H](O)[C@H](O)[C@H]1O)C(C)(C)O)[C@H]1CC[C@@]2(C)[C@@H]3CC=C4[C@@H](CC[C@H](O[C@@H]5O[C@H](CO[C@@H]6O[C@H](CO)[C@@H](O)[C@H](O)[C@H]6O)[C@@H](O)[C@H](O)[C@H]5O)C4(C)C)[C@]3(C)[C@H](O)C[C@]12C` [Mogroside V (70%), Mogroside V], the “Calculated SF (sweetness factor)” value [2] was 236, the “Usage Level, %” value [2] was 0.0212% and the “Sugar equivalent sweetness (SE) of Sweetener/Reb B combination” value ([3]; 0 ppm Reb B, listed as Mogroside V (100 ppm)) was 2.5%. The “Sugar equivalent sweetness (SE) of Sweetener/Reb B combination” value ([3]; 0 ppm Reb B, listed as Mogroside V (212 ppm)) was 5.5-6%, the “Sugar equivalent sweetness (SE) of Sweetener/Reb B combination” value ([3]; 50 ppm Reb B, listed as Mogroside V (100 ppm)) was 4% and the “Sugar equivalent sweetness (SE) of Sweetener/Reb B combination” value ([3]; 50 ppm Reb B, listed as Mogroside V (212 ppm)) was 7%. For the same compound, the “Sugar equivalent sweetness (SE) of Sweetener/Reb B combination” value ([3]; 150 ppm Reb B, listed as Mogroside V (100 ppm)) was 5.5%, the “Sugar equivalent sweetness (SE) of Sweetener/Reb B combination” value ([3]; 150 ppm Reb B, listed as Mogroside V (212 ppm)) was 9% and the “Sugar equivalent sweetness (SE) of Sweetener/Reb B combination” value ([3]; 300 ppm Reb B, listed as Mogroside V (100 ppm)) was 8-8.5%. The “Sugar equivalent sweetness (SE) of Sweetener/Reb B combination” value ([3]; 300 ppm Reb B, listed as Mogroside V (212 ppm)) was 10-10.5%.

In the case of `C=C1C[C@@]23CC[C@H]4[C@@](C)(CCC[C@@]4(C)C(=O)O[C@@H]4O[C@H](CO)[C@@H](O)[C@H](O)[C@H]4O)[C@@H]2CC[C@]1(O[C@@H]1O[C@H](CO)[C@@H](O)[C@H](O[C@@H]2O[C@H](CO)[C@@H](O)[C@H](O)[C@H]2O)[C@H]1O[C@@H]1O[C@@H](C)[C@H](O)[C@@H](O)[C@H]1O)C3` [Rebaudioside C], the “times sweeter than sucrose” value [1] is listed as 40-60 times.

In the case of `OC[C@H]1O[C@H](O[C@]2(CCl)O[C@H](CCl)[C@@H](O)[C@@H]2O)[C@H](O)[C@@H](O)[C@H]1Cl` [Sucralose], the “Calculated SF (sweetness factor)” value [2] is reported as 602, the “Usage Level, %” value [2] is reported as 0.0083% and the “Sugar equivalent sweetness (SE) of Sweetener/Reb B combination” value ([3]; 0 ppm Reb B, listed as Sucralose 83 ppm) is reported as 5%. The “Sugar equivalent sweetness (SE) of Sweetener/Reb B combination” value ([3]; 0 ppm Reb B, listed as Sucralose (40 ppm)) was 2-2.5%, the “Sugar equivalent sweetness (SE) of Sweetener/Reb B combination” value ([3]; 50 ppm Reb B, listed as Sucralose 83 ppm) was 7% and the “Sugar equivalent sweetness (SE) of Sweetener/Reb B combination” value ([3]; 50 ppm Reb B, listed as Sucralose (40 ppm)) was 5%. The “Sugar equivalent sweetness (SE) of Sweetener/Reb B combination” value ([3]; 150 ppm Reb B, listed as Sucralose 83 ppm) was 11%, the “Sugar equivalent sweetness (SE) of Sweetener/Reb B combination” value ([3]; 150 ppm Reb B, listed as Sucralose (40 ppm)) was 7.5-8% and the “Sugar equivalent sweetness (SE) of Sweetener/Reb B combination” value ([3]; 300 ppm Reb B, listed as Sucralose 83 ppm) was 14%. The “Sugar equivalent sweetness (SE) of Sweetener/Reb B combination” value ([3]; 300 ppm Reb B, listed as Sucralose (40 ppm)) was 11%.

In the case of `OC[C@H]1O[C@@](CO)(O[C@H]2O[C@H](CO)[C@@H](O)[C@H](O)[C@H]2O)[C@@H](O)[C@@H]1O` [Sugar], the “Calculated SF (sweetness factor)” value [2] is reported as 1 and the “Usage Level, %” value [2] is reported as 5%.

For Rebaudioside D [Reb D], the “Calculated SF (sweetness factor)” value [2] is listed as 291, the “Usage Level, %” value [2] is listed as 0.0172% and the water solubility [4] is listed as 0.01-0.05%. The water solubility [5] was 0.03%.
